Results published in US20240285638A1, “METHODS FOR TREATING FACIOSCAPULOHUMERAL MUSCULAR DYSTROPHY (FSHD)” (RESEARCH INSTITUTE AT NATIONWIDE CHILDREN'S HOSPITAL, priority 2021, published 2024).

Assays:
[1] = tested on: human myoblasts expressing DUX4; test: Caspase-3/7 activation assay in human myoblasts transfected with DUX4, with or without inhibitor; type: cell-based; conditions: inhibitor added 1.5 hours later, increasing concentrations, caspase assay 48 hours later, FIGS. 6A-B
Description: HEK293 cells were transfected with 100 ng plasmid DNA (65,000 cells/well) using Lipofectamine 2000 and assays were performed 48 hours later using the Apo-ONE Homogeneous Caspase-3/7 Assay (Promega). The protocol was followed according to the manufacturer's instructions. Briefly, 100 μl of the reagent was added to each well and the 96-well plate was gently rotated for 20 min. Relative fluorescence was monitored every hour for 4-6 hours. Inhibitor studies were performed in human myoblasts which were transfected with 100 ng of DUX4 DNA (65,000 cells/well) with Lipofectamine 2000. The inhibitors adenosine dialdehyde or salvianolic acid A were added 1.5 hours later and a caspase assay was performed 48 hours later as above. The observation that a DUX4 arginine methylation null mutant protects from cell death and DUX4 interacts with an arginine methyltransferase indicate a role for arginine methylation inhibitors as protective in FSHD disease models. Thus, the global methylation inhibitor, adenosine dialdehyde (AdOx)^17, and the PRMT1 inhibitor, salvianolic acid A (SAA)^18 were tested for their ability to protect against DUX4-mediated cell death. The caspase assay was performed in human myoblasts expressing DUX4 in the presence or absence of AdOx or SAA.

[2] = tested on: DUX4; test: DUX4 biomarker and target gene expression in muscle of FSHD mouse model (TIC-DUX4) after IM or IV injection; type: in vivo
Description: SAA and AdOx, or derivatives thereof, as described herein, are each injected into a FSHD mouse model (TIC-DUX4) or any other mouse model of FSHD mice intramuscularly (IM) or intravenously (IV). After 4, 8, 12, 16, 20, and 24 weeks, the ? DUX4, a DUX4 biomarker, such as Wfdc3 or Trim36, and DUX4 target gene expression are measured by qRT-PCR, RNAscope, or ddPCR.

[3] = tested on: DUX4; test: DUX4-activated biomarkers and target genes in biopsied muscle of FSHD patients after IM or IV injection; type: in vivo, human
Description: SAA and AdOx, or derivatives thereof, as described herein, are injected into patients suffering from FSHD intramuscularly (IM) or intravenously (IV). Prior to treatment and after 4, 8, 12, 16, 20, 24, 28, 32, 36 40, 44, 48, and 52 weeks, DUX4-activated biomarkers and/or DUX4 target genes in muscle of the patients are measured in biopsied muscle as described herein.

O=C(/C=C/c1ccc(O)c(O)c1/C=C/c1ccc(O)c(O)c1)O[C@H](Cc1ccc(O)c(O)c1)C(=O)O [SAA, salvianolic acid A]
caspase cleavage (DUX4-mediated cell death) [1]: decreased caspase cleavage in a dose-responsive manner
DUX4 biomarker expression in muscle (Wfdc3 or Trim36) ([2]; IM or IV, 4-24 weeks, vs untreated mice): Reduced levels of DUX4 biomarker expression
expression of DUX4 target genes PRAMEF12, ZSCAN4, TRIM43, LEUTX ([2]; IM or IV, vs untreated mice): decreased expression of DUX4 target genes
muscle strength, morphology, ambulation and motor function ([2]; treated mice): improved muscle strength, morphology, and overall ambulation and motor function
FSHD disease symptoms [3]: Improvement in FSHD disease symptoms
expression levels of DUX4-activated biomarkers and/or DUX4 target genes in muscle ([3]; 4-52 weeks, vs same patients prior to treatment): Reduced expression levels of DUX4-activated biomarkers and/or DUX4 target genes
